Source: ChEMBL document CHEMBL4706474, “Tetrahydro-2-naphthyl and 2-Indanyl Triazolopyrimidines Targeting Plasmodium falciparum Dihydroorotate Dehydrogenase Display Potent and Selective Antimalarial Activity” (J Med Chem, 2016)
≈ marks a conversion by molar mass, not a printed value.

Key:
[1] = Protein binding in Swiss mouse plasma at 10 mg/kg, po administered as single dose via gavage measured over 24 hrs by LC-MS analysis; format: ADME, organism-based; conditions: read-out: PPB (converted)
[2] = Unbound AUC (0 to infinity) in Sprague-Dawley rat at 18.8 mg/kg, po by LC-MS analysis; format: ADME, organism-based; conditions: in vivo
[3] = Unbound AUC (0 to infinity) in Sprague-Dawley rat at […], iv by LC-MS analysis; format: ADME, organism-based; conditions: in vivo, dose 2.6 mg/kg
[4] = Protein binding in rat plasma assessed as bound fraction by LC-MS analysis based ultracentrifugation assay; format: ADME, cell-free; conditions: read-out: PPB (converted)
[5] = Unbound Cmax in Sprague-Dawley rat at 18.8 mg/kg, po by LC-MS analysis; format: ADME, organism-based; conditions: in vivo
[6] = Unbound Clearance in Sprague-Dawley rat at […], iv by LC-MS analysis; format: ADME, organism-based; conditions: in vivo, dose 2.6 mg/kg
Plasmodium falciparum [7] = assay: Antiplasmodial activity against Plasmodium falciparum 3D7 infected in RBC assessed as reduction in parasitemia incubated for 72 hrs by SYBR green dye-based assay; format: functional, organism-based; conditions: Plasmodium falciparum, 3D7, Erythrocyte, 72 h
[8] = Intrinsic clearance in rat liver microsomes assessed per mg protein at 1 uM by LC-MS analysis; format: ADME, Microsome; conditions: rat liver microsomes, read-out: CLH
[9] = Intrinsic clearance in human pooled liver microsomes assessed per mg protein at 1 uM by LC-MS analysis; format: ADME, Microsome; conditions: pooled human liver microsomes
[10] = Solubility of compound in 0.1 N HCl measured after 5 to 6 hrs by HPLC-UV based analysis; format: physicochemical; conditions: buffer; time 5-6 hrs
Plasmodium falciparum [11] = assay: Antiplasmodial activity against Plasmodium falciparum 3D7 infected in po dosed NSG mouse assessed as blood AUC level require to show 90% reduction in parasitemia administered once daily for 4 consecutive days starting from day 3 post-infection and measured 24 hrs post last dose by flow cytometric analysis; format: functional, organism-based; conditions: time 4.0 day
[12] = AUC (0 to infinity) in Sprague-Dawley rat at […], iv by LC-MS analysis; format: ADME, organism-based; design: time infinity, route intravenous, dose 2.6 mg/kg; conditions: in vivo
[13] = Unbound AUC (0 to infinity) in Swiss mouse at 10 mg/kg, po by LC-MS analysis; format: ADME, organism-based; conditions: in vivo
[14] = Protein binding in mouse plasma assessed as bound fraction by LC-MS analysis based ultracentrifugation assay; format: ADME, cell-free; conditions: read-out: PPB (converted)
[15] = Unbound Cmax in Swiss mouse at 10 mg/kg, po by LC-MS analysis; format: ADME, organism-based; conditions: in vivo
[16] = Protein binding in Sprague-Dawley rat plasma at […], iv administered as infusion for 10 mins by LC-MS analysis; format: ADME, organism-based; conditions: dose 2.6 mg/kg, read-out: PPB (converted)
Plasmodium falciparum [17] = assay: Antiplasmodial activity against Plasmodium falciparum 3D7 infected in po dosed NSG mouse assessed as reduction in parasitemia administered twice daily for 4 consecutive days starting from day 3 post-infection and measured 24 hrs post last dose by flow cytometric analysis; format: functional; conditions: 3D7, po, 96 h, time 4 day
[18] = Unbound volume of distribution at steady state in Sprague-Dawley rat at […], iv by LC-MS analysis; format: ADME, organism-based; conditions: in vivo, dose 2.6 mg/kg
[19] = Intrinsic clearance in mouse liver microsomes at 1 uM by LC-MS analysis; format: ADME, Microsome

For Cc1cc(Nc2ccc(S(F)(F)(F)(F)F)cc2)n2nc(C(C)(F)F)nc2n1 [DSM-265], the fraction unbound at 24 h [1] was 0.003, the fAUC [2] was 2.8 µM·h and the fAUC [3] was 0.4 µM·h. It also gave a fraction unbound [4] of 0.023, a fCmax [5] of 0.09 µM and a CL free [6] of 263 mL/min/kg. For the same molecule, the EC50 (Plasmodium falciparum [7]) was 4.3 nM, the microsomal CLint at 1 µM [8] was 1.8 µL/min/mg and the microsomal CLint at 1 µM [9] was 4.3 µL/min/mg. It also gave a solubility [10] of 6.8 µg/mL (≈ 16.4 µM), an AUCED90 (Plasmodium falciparum [11]) of 30.8 µM.hr/day and an AUC(0-inf) [12] of 17.4 µM·h. It also gave a fAUC [13] of 0.07 µM·h, a fraction unbound [14] of 0.003 and a fCmax [15] of 0.01 µM. The fraction unbound at 10 min [16] was 0.023, the ED90 (Plasmodium falciparum [17]) was 3 mg/kg and the fVdss [18] was 257 L/kg. The intrinsic clearance [19] was 2.8 µL/min.
